This is an account of results in ChEMBL document CHEMBL5303304, “EUbOPEN Chemogenomics Library - IncuCyte” (2023).

Values joined by “and” are separate entries in the source; they are usually repeats but may differ in a detail not shown here. Equal entries are not always repeated.

Common to all, as to type: toxicity, cell-based
One data set relates to Fibroblast. The experiment in a line: Incucyte cell viability with human fibroblast. Particulars: 10 µM, compound concentration 10 uM.
In the next data set the test system is HEK-293T. The data set can be described thus: Incucyte cell viability with HEK293T. Particulars: human, 10 µM, compound concentration 10 uM.
The next data set deals with U2OS. The data set can be described thus: Incucyte cell viability with U2OS. Conditions: human, 10 µM, compound concentration 10 uM.
Note: unitless GR value; below 1 slowed growth and below 0 cell loss.

For `CCOC(=O)c1c(/C(C#N)=C\N)c2ccc(Cl)c(Cl)c2n1C`, the “Growth Rate” value with Fibroblast (0 h, replicate number 1) is 0.55; in the data set on Fibroblast (6 h, replicate number 1) it was -0.96; in the data set with Fibroblast (12 h, replicate number 2) it was 0.88; with Fibroblast (18 h, replicate number 1), 0.7; in the data set on Fibroblast (24 h, replicate number 1), 0.75; with Fibroblast (24 h, replicate number 2), 0.9. The “Growth Rate” value with HEK-293T (0 h, replicate number 1) was 0.22; in the data set with U2OS (0 h, replicate number 1), -0.98; with U2OS (0 h, replicate number 2), 0.82; with U2OS (6 h, replicate number 1) it was 0.92; in the data set with U2OS (12 h, replicate number 1), 0.97; with U2OS (24 h, replicate number 1) it was 0.94.

For `CN1[C@@H](CC(=O)c2ccccc2)CCC[C@H]1C[C@H](O)c1ccccc1.Cl` [LOBELINE HYDROCHLORIDE], the “Growth Rate” value with Fibroblast (0 h, replicate number 2) is listed as -0.71; with Fibroblast (6 h, replicate number 1), 0.48; in the data set with Fibroblast (6 h, replicate number 2), 0.28; in the data set with Fibroblast (12 h, replicate number 2), 0.64; in the data set on Fibroblast (18 h, replicate number 1) it was 0.91; with Fibroblast (24 h, replicate number 1) it was 0.58. For the same molecule, the “Growth Rate” value in the data set on Fibroblast (24 h, replicate number 2) was 0.83; in the data set on HEK-293T (6 h, replicate number 1), 0.43; with HEK-293T (6 h, replicate number 2), 0.24; with HEK-293T (12 h, replicate number 1), 0.62; in the data set with U2OS (0 h, replicate number 1), 0.28; in the data set on U2OS (0 h, replicate number 2), -0.67. In addition, the “Growth Rate” value is listed as 0.83 with U2OS (6 h, replicate number 1); 0.92 with U2OS (12 h, replicate number 1); 1 in the data set on U2OS (18 h, replicate number 2); 0.87 in the data set with U2OS (24 h, replicate number 2).

Consider `Cc1cc(-c2nncc3c(C(C)(C)C)c(OCc4ncnn4C)nn23)no1`, for which the “Growth Rate” value with Fibroblast (0 h, replicate number 1) is given as -0.5; in the data set on Fibroblast (6 h, replicate number 1) it was 1; in the data set on Fibroblast (6 h, replicate number 2) it was -0.97; in the data set on Fibroblast (12 h, replicate number 2), 0.98; in the data set on Fibroblast (18 h, replicate number 1), 0.1; in the data set with Fibroblast (18 h, replicate number 2), 0.78. The “Growth Rate” value in the data set with Fibroblast (24 h, replicate number 1) came out at 0.26; with Fibroblast (24 h, replicate number 2), 0.87; in the data set with HEK-293T (0 h, replicate number 2) it was 0.72; with HEK-293T (6 h, replicate number 1), 0.14; in the data set with HEK-293T (6 h, replicate number 2), 0.78; in the data set on HEK-293T (12 h, replicate number 1), 0.35. Moreover, the “Growth Rate” value in the data set on HEK-293T (12 h, replicate number 2) is 0.53; with HEK-293T (18 h, replicate number 1), 0.1; in the data set with HEK-293T (18 h, replicate number 2) it was 0.57; in the data set with HEK-293T (24 h, replicate number 1) it was 0.14; in the data set on HEK-293T (24 h, replicate number 2) it was 0.61; in the data set with U2OS (0 h, replicate number 2), -0.99. The “Growth Rate” value in the data set with U2OS (6 h, replicate number 1) was 0.85; in the data set with U2OS (6 h, replicate number 2), 0.23; in the data set with U2OS (12 h, replicate number 2), 0.67; with U2OS (18 h, replicate number 1), 0.82; in the data set on U2OS (18 h, replicate number 2) it was 0.71; in the data set with U2OS (24 h, replicate number 1), 0.93. The “Growth Rate” value in the data set on U2OS (24 h, replicate number 2) stood at 0.86.

Consider `CC(C)n1nc(-c2cnc(N)c(OC(F)(F)F)c2)cc1[C@H]1[C@@H]2CN(C3COC3)C[C@@H]21`, for which the “Growth Rate” value was 0.52 in the data set on Fibroblast (0 h, replicate number 1); -0.97 in the data set on Fibroblast (12 h, replicate number 1); 0.78 in the data set on Fibroblast (12 h, replicate number 2); 0.08 with Fibroblast (18 h, replicate number 1); 0.91 with Fibroblast (18 h, replicate number 2); 0.95 with Fibroblast (24 h, replicate number 2). Further, the “Growth Rate” value in the data set on HEK-293T (6 h, replicate number 2) was determined as 0.62; with U2OS (0 h, replicate number 1) it was 0.6; in the data set with U2OS (6 h, replicate number 1), 0.76; in the data set with U2OS (12 h, replicate number 1), 0.92; in the data set with U2OS (24 h, replicate number 1) it was 0.84.

As to `Cc1c(N2CCCC2)nc2ccc(Br)cc2c1C(=O)NC[C@H](CCC(=O)O)c1ccccc1Cl` [BAY-6672], the “Growth Rate” value is given as 0.13 in the data set with Fibroblast (6 h, replicate number 1); 0.91 with Fibroblast (12 h, replicate number 1); 0.97 in the data set on Fibroblast (18 h, replicate number 1); 0.93 in the data set with Fibroblast (18 h, replicate number 2); 0.89 with Fibroblast (24 h, replicate number 2); -0.43 with HEK-293T (0 h, replicate number 1). Further, the “Growth Rate” value with HEK-293T (12 h, replicate number 2) is given as 0.76; in the data set with HEK-293T (18 h, replicate number 2) it was 0.38; in the data set on HEK-293T (24 h, replicate number 2), 0.44; with U2OS (0 h, replicate number 1) it was 0.89; in the data set with U2OS (0 h, replicate number 2), 0.47; with U2OS (6 h, replicate number 1) it was 0.7. In addition, the “Growth Rate” value turned out to be 0.83 in the data set on U2OS (6 h, replicate number 2); 0.88 in the data set on U2OS (12 h, replicate number 1); 0.83 in the data set with U2OS (12 h, replicate number 2); 0.67 with U2OS (18 h, replicate number 1); 0.9 in the data set on U2OS (18 h, replicate number 2); 0.98 with U2OS (24 h, replicate number 1). Besides, the “Growth Rate” value in the data set with U2OS (24 h, replicate number 2) is 0.79.

Take `COc1cc(Oc2nc(-c3ccc(NC(=O)C4CCOC4)cc3)nn3c(C)nc(C)c23)cc(OC)c1OC` (stereo not given): the “Growth Rate” value with Fibroblast (0 h, replicate number 2) turned out to be 0.03; in the data set with Fibroblast (12 h, replicate number 2), 0.75; in the data set on HEK-293T (24 h, replicate number 1) it was 0.96; in the data set on U2OS (6 h, replicate number 1), 0.98; in the data set on U2OS (12 h, replicate number 2) it was 0.94; in the data set on U2OS (24 h, replicate number 1), 0.87.

Take `Clc1ccccc1C(c1ccccc1)(c1ccccc1)n1cccn1`: the “Growth Rate” value with Fibroblast (6 h, replicate number 1) was 0.64; in the data set with Fibroblast (12 h, replicate number 2), 0.39; in the data set with Fibroblast (18 h, replicate number 1), 0.46; in the data set with Fibroblast (24 h, replicate number 2), 0.54; in the data set with HEK-293T (0 h, replicate number 1), 0.43; with HEK-293T (0 h, replicate number 2), 0.27 and 0.15. In addition, the “Growth Rate” value in the data set on HEK-293T (6 h, replicate number 1) is on record as 0.05; in the data set on HEK-293T (6 h, replicate number 2), 0.9; in the data set on HEK-293T (12 h, replicate number 1), 0.26; with HEK-293T (18 h, replicate number 1), 0.83; in the data set with HEK-293T (24 h, replicate number 1), 0.89; in the data set with U2OS (0 h, replicate number 2) it was -0.86. Also, the “Growth Rate” value is 0.24 with U2OS (6 h, replicate number 1); 0.65 with U2OS (6 h, replicate number 2); 0.78 in the data set with U2OS (12 h, replicate number 1); 0.9 in the data set on U2OS (12 h, replicate number 2); 1 in the data set on U2OS (18 h, replicate number 1); 0.94 in the data set on U2OS (18 h, replicate number 2). In addition, the “Growth Rate” value with U2OS (24 h, replicate number 1) was determined as 0.91.

As for `CSc1nc2c(c(=O)n(C)c(=O)n2C)n1C`, the “Growth Rate” value is given as -1 in the data set with Fibroblast (0 h, replicate number 1); -0.52 in the data set on Fibroblast (0 h, replicate number 2); 0.03 in the data set on Fibroblast (6 h, replicate number 1); -0.57 in the data set on Fibroblast (6 h, replicate number 2); 0.58 with Fibroblast (12 h, replicate number 1); 0.87 in the data set on Fibroblast (18 h, replicate number 1). Also, the “Growth Rate” value in the data set on Fibroblast (24 h, replicate number 1) is given as 0.71; with Fibroblast (24 h, replicate number 2) it was 0.92; in the data set with HEK-293T (0 h, replicate number 1), 0.12; in the data set with HEK-293T (6 h, replicate number 2), -0.14; with HEK-293T (12 h, replicate number 2), 0.78; in the data set on HEK-293T (18 h, replicate number 2), 1. Moreover, the “Growth Rate” value with U2OS (0 h, replicate number 1) was found to be 0.57; in the data set with U2OS (6 h, replicate number 1), 0.84; in the data set on U2OS (6 h, replicate number 2), 0.49; in the data set on U2OS (12 h, replicate number 2), 0.74; in the data set with U2OS (18 h, replicate number 2), 0.86; with U2OS (24 h, replicate number 2) it was 0.97.

As for `O=C(Cc1ccccc1[N+](=O)[O-])Nc1ccc(-c2ccc(C(O)(C(F)(F)F)C(F)(F)F)cc2F)cc1`, the “Growth Rate” value with Fibroblast (6 h, replicate number 1) was -0.02; in the data set with Fibroblast (6 h, replicate number 2) it was -0.05; with Fibroblast (12 h, replicate number 1) it was 0.45; in the data set with Fibroblast (12 h, replicate number 2) it was 0.28; in the data set on Fibroblast (18 h, replicate number 1), 0.13; in the data set with Fibroblast (18 h, replicate number 2) it was -0.04. Also, the “Growth Rate” value in the data set with Fibroblast (24 h, replicate number 1) is given as -0.02; with Fibroblast (24 h, replicate number 2), -0.14; in the data set with HEK-293T (0 h, replicate number 1) it was 0.09; in the data set with HEK-293T (0 h, replicate number 2) it was -0.97; with HEK-293T (6 h, replicate number 1), 0.35; in the data set on HEK-293T (6 h, replicate number 2), 0.13. Further, the “Growth Rate” value is on record as 0.73 with HEK-293T (12 h, replicate number 1); 0.64 in the data set on HEK-293T (12 h, replicate number 2); 0.7 in the data set on HEK-293T (18 h, replicate number 1); 0.6 with HEK-293T (18 h, replicate number 2); 0.78 in the data set on HEK-293T (24 h, replicate number 1); 0.74 in the data set on HEK-293T (24 h, replicate number 2). For the same molecule, the “Growth Rate” value is 0.87 with U2OS (6 h, replicate number 2); 0.85 in the data set with U2OS (12 h, replicate number 2); 0.73 with U2OS (18 h, replicate number 2); 0.66 in the data set with U2OS (24 h, replicate number 2).

As for `C[C@H](CCC(=O)O)[C@H]1CC[C@H]2[C@@H]3CC[C@@H]4C[C@H](O)CC[C@]4(C)[C@H]3CC[C@]12C` [LITHOCHOLIC ACID], the “Growth Rate” value in the data set on Fibroblast (0 h, replicate number 2) came out at 0.27; with Fibroblast (12 h, replicate number 2), 0.76; with Fibroblast (18 h, replicate number 2), 0.87; with Fibroblast (24 h, replicate number 2) it was 0.89; with HEK-293T (0 h, replicate number 1), 0.14; in the data set with HEK-293T (6 h, replicate number 2) it was 0.73. In addition, the “Growth Rate” value in the data set on HEK-293T (12 h, replicate number 2) is 0.67; in the data set with HEK-293T (18 h, replicate number 2), 0.77; in the data set with U2OS (0 h, replicate number 1), -0.56; in the data set with U2OS (6 h, replicate number 1) it was 0.93; in the data set on U2OS (12 h, replicate number 1), 0.68; with U2OS (18 h, replicate number 1), 0.74. In the data set on U2OS (24 h, replicate number 1), the “Growth Rate” value is listed as 0.83.

Turning to `Cc1[nH]nc2ccc(-c3cncc(OCC(N)Cc4c[nH]c5ccccc45)c3)cc12` (stereo not given), the “Growth Rate” value with Fibroblast (6 h, replicate number 1) is recorded as -1; with Fibroblast (18 h, replicate number 2), 0.88; with Fibroblast (24 h, replicate number 2), 0.21; with HEK-293T (0 h, replicate number 1), -0.53; with HEK-293T (0 h, replicate number 2), -0.56; with HEK-293T (12 h, replicate number 2), 0.41. Also, the “Growth Rate” value is reported as 0.65 with HEK-293T (18 h, replicate number 1); 0.08 in the data set on HEK-293T (18 h, replicate number 2); 0.19 in the data set on HEK-293T (24 h, replicate number 1); -0.02 in the data set with HEK-293T (24 h, replicate number 2); 0.54 in the data set on U2OS (0 h, replicate number 2); 0.51 with U2OS (18 h, replicate number 1). The “Growth Rate” value in the data set on U2OS (24 h, replicate number 1) amounted to 0.09; in the data set with U2OS (24 h, replicate number 2), 0.13.
